pIC50: −log10 of the molar value. Activity calls are given as the source filed them. No cut-off for these calls is given here.

Results on 48 compounds are retold here after ChEMBL document CHEMBL1833836, “Synthesis and evaluation of phosphoramidate and phosphorothioamidate analogues of amiprophos methyl as potential antimalarial agents” (Bioorg Med Chem Lett, 2011).

The subject of experiment [1] is Plasmodium falciparum. Description: Ratio of compound IC50 to APM IC50 for Plasmodium falciparum 3D7. The class given is functional.
The subject of experiment [2] is Plasmodium falciparum. Description: Antimalarial activity against Plasmodium falciparum 3D7 infected in O-positive human erythrocytes assessed as inhibition of parasite lactate dehydrogenase after 72 hrs by pLDH method. Format: functional, organism-based. The conditions noted are these: 3D7, 72 h.
Experiment [3] deals with Plasmodium falciparum. The experiment in a line: Antimicrobial activity against Plasmodium falciparum. The class given is functional, organism-based.
The subject of a further experiment is Cryptosporidium parvum. The experiment in a line: Antimicrobial activity against Cryptosporidium parvum infected in HCT8 cells assessed as parasite count after 72 to 120 hrs. The class given is functional, organism-based. The conditions noted are these: HCT-8.
In experiment [4] the test system is Plasmodium falciparum. Description: Antimicrobial activity against Plasmodium falciparum up to 128 uM. Format: functional, organism-based.

As to `CCCCCCCNP(=O)(OCC)Oc1ccc(C(F)(F)F)cc1` (stereo unspecified), in the experiment with Plasmodium falciparum [1], the “Ratio IC50” value is reported as 20. Further, the pIC50 with Plasmodium falciparum [2] was 4.36. For `CCOP(=O)(NC(C)C)Oc1ccc([N+](=O)[O-])c(C)c1` (stereo unspecified) the same measures were 20 and 4.10. As for `CCOP(=O)(Oc1ccc(C(F)(F)F)cc1)N1CCCCC1` (stereo unspecified), the “Ratio IC50” value with Plasmodium falciparum [1] came out at 20. In addition, the negative logarithm of the IC50 (pIC50) with Plasmodium falciparum [2] is 4.08. As to `O=[N+]([O-])c1cc([N+](=O)[O-])c(N2CCC(N3CCCC3)CC2)c(C(F)(F)F)c1`, in the experiment on Plasmodium falciparum [3], the pIC50 is 6.36.

On to `CCCNP(=O)(OCC)Oc1cc(C)ccc1[N+](=O)[O-]` (stereo unspecified), for which the “Ratio IC50” value with Plasmodium falciparum [1] was 20. Also, the pIC50 with Plasmodium falciparum [2] is 3.99. For `CCOP(=O)(NC1CCCC1)Oc1ccc(C)cc1[N+](=O)[O-]` (stereo unspecified) the same measures were 20 and 4.33.

For the compound `CCOP(N)(=O)Oc1ccc(C(F)(F)F)cc1` (stereo unspecified), the “Ratio IC50” value in the experiment on Plasmodium falciparum [1] stood at 20. In the experiment on Plasmodium falciparum [2], the pIC50 is 4.10. For `CCOP(=O)(NC(C)C)Oc1ccccc1C(F)(F)F` (stereo unspecified) the same measures were 20 and 4.06. The corresponding values for `CCOP(=O)(NC1CCCC1)Oc1ccc(C(F)(F)F)cc1` (stereo unspecified) are 20 and 4.59. The corresponding values for `CCCNP(=O)(OCC)Oc1ccc(C)cc1[N+](=O)[O-]` (stereo unspecified) are 20 and less than 3.89.

In the case of `CCOP(=O)(NC1CCCC1)Oc1ccc(Br)cc1` (stereo unspecified), in the experiment with Plasmodium falciparum [1], the “Ratio IC50” value is recorded as 20. The negative logarithm of the IC50 (pIC50) in the experiment with Plasmodium falciparum [2] is 4.77. For `CCCCNP(=O)(OCC)Oc1ccc(C)cc1[N+](=O)[O-]` (stereo unspecified) the same measures were 20 and 4.55. On to `CCOP(=O)(NC(C)C)Oc1ccc(C)cc1OC` (stereo unspecified), for which the “Ratio IC50” value in the experiment on Plasmodium falciparum [1] came out at 20. The pIC50 in the experiment on Plasmodium falciparum [2] is 3.89.

As for `CCCCNP(=O)(OCC)Oc1ccc(C(F)(F)F)cc1` (stereo unspecified), the “Ratio IC50” value with Plasmodium falciparum [1] is given as 20. Besides, in the experiment on Plasmodium falciparum [2], the negative-log IC50 (pIC50) is 4.49. Consider `CCCN(CCC)c1c([N+](=O)[O-])cc(C(F)(F)F)cc1[N+](=O)[O-]` [TRIFLURALIN], for which the pIC50 in the experiment with Cryptosporidium parvum is 6.12; in the experiment on Plasmodium falciparum [3], 5.54. Regarding `CCOP(=O)(NCC(C)C)Oc1cc(C)ccc1[N+](=O)[O-]` (stereo unspecified), the “Ratio IC50” value in the experiment on Plasmodium falciparum [1] stood at 20. The pIC50 with Plasmodium falciparum [2] is less than 3.89.

For `CCOP(=O)(NCC(C)C)Oc1ccc(C(F)(F)F)cc1` (racemic), in the experiment on Plasmodium falciparum [1], the “Ratio IC50” value is listed as 20. The pIC50 in the experiment with Plasmodium falciparum [2] was 4.40. With `CCOP(=O)(NC(C)C)Oc1cccc([N+](=O)[O-])c1C` (stereo unspecified), the “Ratio IC50” value in the experiment on Plasmodium falciparum [1] is recorded as 20. For the same compound, the pIC50 in the experiment on Plasmodium falciparum [2] was 3.89. For `CC(C)OC(=O)Nc1cccc(Cl)c1`, the inhibition result in the experiment on Plasmodium falciparum [4] is “inactive”.

For the compound `CCOP(=O)(NC(C)C)Oc1cccc(C(F)(F)F)c1` (stereo unspecified), in the experiment with Plasmodium falciparum [1], the “Ratio IC50” value is 20. The pIC50 with Plasmodium falciparum [2] is 4.30. In the case of `CCOP(=S)(NC1CCCC1)Oc1ccc([N+](=O)[O-])cc1C` (stereo unspecified), the pIC50 in the experiment on Plasmodium falciparum [2] was 5.80. For the compound `CCOP(=O)(NC(C)C)Oc1cc(C)ccc1[N+](=O)[O-]` (stereo unspecified), the “Ratio IC50” value in the experiment on Plasmodium falciparum [1] is given as 20. The pIC50 with Plasmodium falciparum [2] was less than 3.89. As to `CCOP(=O)(NC(C)C)Oc1ccc(C)cc1Cl` (stereo unspecified), the “Ratio IC50” value in the experiment on Plasmodium falciparum [1] stood at 20. Besides, the negative-log IC50 (pIC50) in the experiment with Plasmodium falciparum [2] is 4.41. Turning to `CCCCCNP(=S)(OCC)Oc1ccc(C(F)(F)F)cc1` (stereo unspecified), the pIC50 in the experiment on Plasmodium falciparum [2] is 5.35. As for `CCOP(=O)(NC1CCCCC1)Oc1ccc(C(F)(F)F)cc1` (stereo unspecified), the “Ratio IC50” value in the experiment on Plasmodium falciparum [1] was 20. The pIC50 in the experiment on Plasmodium falciparum [2] is 4.37.

As to `COP(=S)(NC(C)C)Oc1ccc(C)cc1[N+](=O)[O-]` (stereo unspecified) [AMIPROPHOS METHYL], the pIC50 with Plasmodium falciparum [2] is 5.40. Same read-out and setting: to `CCCCCNP(=S)(OCC)Oc1ccc([N+](=O)[O-])cc1C` (stereo unspecified) belongs 5.16. Consider `CCOP(=O)(NC(C)C)Oc1ccc(C)cc1Br` (stereo unspecified), for which the “Ratio IC50” value in the experiment on Plasmodium falciparum [1] is recorded as 20. Besides, the pIC50 in the experiment on Plasmodium falciparum [2] is 4.41.

Take `CCOP(=O)(NC(C)C)Oc1ccc2ccccc2c1` (stereo unspecified): in the experiment with Plasmodium falciparum [1], the “Ratio IC50” value is on record as 20. Besides, in the experiment on Plasmodium falciparum [2], the pIC50 is 4.14. Consider `CCOP(=S)(NC1CCCC1)Oc1ccc(C(F)(F)F)cc1` (stereo unspecified), for which the “Ratio IC50” value in the experiment with Plasmodium falciparum [1] was 20. The pIC50 in the experiment with Plasmodium falciparum [2] was 5.07. Take `CCOP(=O)(NC(C)C)Oc1ccc(C(F)(F)F)cc1` (stereo unspecified): the “Ratio IC50” value in the experiment on Plasmodium falciparum [1] was found to be 20. Moreover, the pIC50 in the experiment with Plasmodium falciparum [2] was 4.30. With `CCOP(=S)(NC1CCCC1)Oc1ccc(Br)cc1` (stereo unspecified), the pIC50 in the experiment with Plasmodium falciparum [2] is 4.64. On the same count and under the same terms, the figure for `CCOP(NC1CCCC1)Oc1ccc(Br)cc1` (stereo unspecified) is 3.89. For `CCOP(=O)(NC(C)C)Oc1ccc2ccccc2c1[N+](=O)[O-]` (stereo unspecified), in the experiment on Plasmodium falciparum [1], the “Ratio IC50” value was found to be 20. Moreover, the pIC50 with Plasmodium falciparum [2] was 4.06. As for `CCOP(=O)(NC(C)C)Oc1ccc([N+](=O)[O-])cc1C` (stereo unspecified), the “Ratio IC50” value in the experiment with Plasmodium falciparum [1] stood at 20. Besides, the pIC50 in the experiment on Plasmodium falciparum [2] is 3.89. With `CCOP(=O)(NC(C)C)Oc1cc([N+](=O)[O-])ccc1C` (stereo unspecified), the “Ratio IC50” value in the experiment with Plasmodium falciparum [1] was 20. Also, the pIC50 in the experiment with Plasmodium falciparum [2] is 3.89. `CCCN(CCC)c1c([N+](=O)[O-])cc(S(N)(=O)=O)cc1[N+](=O)[O-]` [ORYZALIN]: the pIC50 in the experiment on Cryptosporidium parvum was 6.10.

Regarding `CCOP(=O)(Oc1ccc(C(F)(F)F)cc1)N(CC)CC` (stereo unspecified), the “Ratio IC50” value in the experiment on Plasmodium falciparum [1] is reported as 20. Further, the pIC50 in the experiment on Plasmodium falciparum [2] was 4.32. For the compound `CCOP(=O)(NC(C)C)Oc1ccc(C)cc1C#N` (stereo unspecified), in the experiment on Plasmodium falciparum [1], the “Ratio IC50” value is reported as 20. The pIC50 with Plasmodium falciparum [2] is 3.89. For `CCOP(=O)(Oc1ccc(C(F)(F)F)cc1)N1CCCC1` (stereo unspecified) the same measures were 20 and 4.25. For `CCOP(=O)(NC(C)C)Oc1ccc(C)cc1[N+](=O)[O-]` (stereo unspecified) the same measures were 20 and 3.90. For `CCOP(=O)(Nc1ccc(C)cc1Cl)Oc1ccc(C)cc1Cl` (stereo unspecified) the same measures were 20 and 3.99. Turning to `CCOP(=O)(NC1CCC1)Oc1ccc(C(F)(F)F)cc1` (stereo unspecified), in the experiment on Plasmodium falciparum [1], the “Ratio IC50” value worked out at 20. The negative logarithm of the IC50 (pIC50) with Plasmodium falciparum [2] was 4.35.

In the case of `CCCCCNP(=O)(OCC)Oc1ccc(C)cc1[N+](=O)[O-]` (stereo unspecified), the “Ratio IC50” value in the experiment with Plasmodium falciparum [1] amounted to 20. The negative-log IC50 (pIC50) in the experiment with Plasmodium falciparum [2] was 4.29. For the compound `CCN(CC)CCN(CC)c1c([N+](=O)[O-])cc([N+](=O)[O-])cc1C(F)(F)F`, the pIC50 in the experiment on Plasmodium falciparum [3] was 6.36.

Take `CCOP(=O)(Oc1ccc(C(F)(F)F)cc1)N1CCOCC1` (stereo unspecified): the “Ratio IC50” value in the experiment with Plasmodium falciparum [1] was 20. For the same compound, the negative-log IC50 (pIC50) in the experiment on Plasmodium falciparum [2] is 4.01. The corresponding values for `CCOP(=O)(NCC(C)C)Oc1ccc(C)cc1[N+](=O)[O-]` (stereo unspecified) are 20 and 4.12. The corresponding values for `CCOP(=O)(NC(C)C)Oc1ccccc1` (stereo unspecified) are 20 and less than 3.89.
